One assay addresses T1, FLT3 (Homo sapiens, UniProt P36888).
T1 sequence (P36888 27-993): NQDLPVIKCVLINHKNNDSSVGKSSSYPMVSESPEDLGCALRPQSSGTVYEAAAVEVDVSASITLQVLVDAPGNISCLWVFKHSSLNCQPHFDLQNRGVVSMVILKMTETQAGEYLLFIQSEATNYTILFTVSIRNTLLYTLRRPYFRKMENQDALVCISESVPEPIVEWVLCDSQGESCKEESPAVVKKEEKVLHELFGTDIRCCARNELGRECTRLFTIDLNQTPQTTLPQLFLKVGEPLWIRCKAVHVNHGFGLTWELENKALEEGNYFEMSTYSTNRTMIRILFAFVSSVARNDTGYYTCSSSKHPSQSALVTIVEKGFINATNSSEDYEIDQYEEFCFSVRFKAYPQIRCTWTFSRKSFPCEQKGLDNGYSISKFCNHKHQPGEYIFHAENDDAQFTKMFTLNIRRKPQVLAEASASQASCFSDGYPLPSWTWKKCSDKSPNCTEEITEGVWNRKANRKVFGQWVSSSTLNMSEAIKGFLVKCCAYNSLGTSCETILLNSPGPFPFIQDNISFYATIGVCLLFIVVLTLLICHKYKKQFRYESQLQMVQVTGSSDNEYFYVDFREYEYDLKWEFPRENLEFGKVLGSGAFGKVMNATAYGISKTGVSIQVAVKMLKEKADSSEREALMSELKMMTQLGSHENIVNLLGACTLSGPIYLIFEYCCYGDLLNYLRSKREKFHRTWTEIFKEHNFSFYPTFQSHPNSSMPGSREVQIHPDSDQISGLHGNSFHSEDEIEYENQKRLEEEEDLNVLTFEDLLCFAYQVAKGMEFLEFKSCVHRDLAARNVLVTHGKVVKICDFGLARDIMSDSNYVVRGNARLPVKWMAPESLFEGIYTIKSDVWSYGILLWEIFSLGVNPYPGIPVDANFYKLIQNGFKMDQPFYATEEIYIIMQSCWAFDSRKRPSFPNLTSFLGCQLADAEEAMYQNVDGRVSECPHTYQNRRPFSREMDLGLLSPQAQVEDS
The assay is described as follows: Reaction Biology NanoBRET target engagement assay, FLT3. The assay is classed as cell-based. The note with it: HEK-293 cells transfected with Kinase-NanoLuc fusion vector, live cells. An excerpt:
(§1) The NanoBRET assay measures kinase engagement in real time in the context of the intact cell. Unlike the previously described biochemical kinase assay methodologies in Examples 47 and 48, the NanoBRET assay measures the binding and activity characteristics under equilibrium conditions using full-length kinases in the presence of cellular concentrations of ATP in live, uncompromised cells. […] The assay uses a Kinase-NanoLuc® fusion vector expressing a kinase protein to which a luciferase tag has been added, a cell-permeant fluorescent NanoBRET™ tracer, a NanoLuc® substrate, and an extracellular NanoLuc® inhibitor. Upon expression of the luciferase-tagged kinase, cells will produce a strong BRET signal only in the presence of the NanoBRET™ tracer. The extracellular NanoLuc® inhibitor ensures that the BRET signal observed emanates only from live cells. Because the BRET signal has tight distance constraints, addition of the test compound will decrease the BRET signal if the compound competes with the NanoBRET™ tracer for binding to the kinase domain. Under the appropriate tracer conditions established by the manufacturer, quantitative intracellular affinity and relative potency can then be determined using Mass Action model equations.
(§2) HEK-293 cells were purchased from ATCC. FuGENEHD Transfection Reagent, Kinase-NanoLucfusion plasmids, Transfection Carrier DNA, NanoBRETTracers and dilution buffer, NanoBRETNano-Glo Substrate, Extracellular NanoLucInhibitor were obtained from Promega.
(§3) Assays were conducted following Promega assay protocol with some modifications. HEK-293 Cells were transiently transfected with Kinase-NanoLucFusion Vector DNA by FuGENEHD Transfection Reagent. Testing compounds were delivered into 384 well assay plate by Echo 550 (LabcyteInc, Sunnyvale, CA). Transfected cells were harvested and mixed with NanoBRETTracer Reagent and dispensed into 384 well plates and incubated at 37° C. in 5% CO2 cell culture incubator for 1 hour. The NanoBRETNano-Glo Substrate plus Extracellular NanoLucInhibitor Solution were added into the wells of the assay plate and incubated for 2-3 minutes at room temperature. The donor emission wavelength (460 nm) and acceptor emission wavelength (600 nm) were measured in the EnVisionplate reader. The BRET Ratios were calculated. BRET Ratio=[(Acceptor sample÷Donor sample)−(Acceptor no-tracer control÷Donor no-tracer control)]. The IC50 values of compounds were calculated with Prism GraphPad program.
(§4) • 1). Cultivate HEK-293 cells (70-80% confluence) appropriately prior to assay. Trypsinize and collect HEK-293 cells. • 2). Prepare lipid: DNA complexes as follows: • a. Prepare a 10 μg/ml solution of DNA in Opti-MEM without serum that consists of the following ratios of carrier DNA and DNA encoding NanoLuc® fusion. […] of Transfection Carrier DNA, […] of NanoLuc fusion vector DNA and 1 mL of Opti-MEM without phenol red. Mix thoroughly. • b. Add 30 μl of FuGENE HD Transfection Reagent into each milliliter of DNA mixture to form lipid: DNA complex. • c. Mix by inversion 10 times. • d. Incubate at ambient temperature for 20 minutes to allow complexes to form. • 3). In a sterile, conical tube, mix 1 part of lipid:DNA complex with 20 parts of HEK-293 cells in suspension. Mix gently by inversion 5 times. • 4). Dispense cells+lipid: DNA complex into a sterile tissue culture dish and incubate for 22-24 hours.
(§5) Each test compound is delivered from the compound source plate to the wells of 384-well white NBS plate by Echo 550.
(§6) 3. Preparation of Cells with NanoBRET™ Tracer Reagent • 1). Remove medium from dish with transfected HEK-293 cells via aspiration, trypsinize and allow cells to dissociate from the dish. • 2). Neutralize trypsin using medium containing serum and centrifuge at 200× g for 5 minutes to pellet the cells. Adjust the cell density to […] cells/mL in Opti-MEM without phenol red. • 3). Prepare Complete 20× NanoBRET™ Tracer Reagent with Tracer Dilution Buffer. • 4). […]
(In general: BRET reads energy transfer from a luciferase to a nearby fluorophore.)

The next assay concerns the target T2, IRAK4 (Homo sapiens, UniProt Q9NWZ3).
T2 sequence (Q9NWZ3 1-460): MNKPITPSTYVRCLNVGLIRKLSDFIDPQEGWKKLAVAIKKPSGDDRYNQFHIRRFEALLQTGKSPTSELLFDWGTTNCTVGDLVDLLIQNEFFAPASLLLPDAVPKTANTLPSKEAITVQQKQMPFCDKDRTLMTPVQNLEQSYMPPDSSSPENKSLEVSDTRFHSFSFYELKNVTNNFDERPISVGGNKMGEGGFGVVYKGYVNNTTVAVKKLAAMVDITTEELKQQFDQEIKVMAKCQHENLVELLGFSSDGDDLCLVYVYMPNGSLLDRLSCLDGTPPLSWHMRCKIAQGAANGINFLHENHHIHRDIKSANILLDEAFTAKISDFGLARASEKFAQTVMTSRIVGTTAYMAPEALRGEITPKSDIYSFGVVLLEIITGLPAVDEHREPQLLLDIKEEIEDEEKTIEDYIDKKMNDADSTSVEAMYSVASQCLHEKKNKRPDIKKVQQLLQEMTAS
The assay is described as follows: Reaction Biology NanoBRET target engagement assay, IRAK4. In kind it is cell-based. The note with it: HEK-293 cells transfected with Kinase-NanoLuc fusion vector, live cells.
From the text: as §1, §2, §3, §4, §5, §6

Results on seven compounds are retold here after patent publication US20250368648A1, “MULTI-CYCLIC IRAK AND FLT3 INHIBITING COMPOUNDS AND USES THEREOF” (CHILDREN'S HOSPITAL MEDICAL CENTER, priority 2022, published 2025).

Structures are written as SMILES. pIC50: −log10 of the molar value.

The term pIC50 denotes the IC50 on a negative log10 scale, so that one unit is a factor of ten. Low readings indicate a high IC50, high ones a low IC50. As for `COc1cc2ncc(-c3nc(N[C@H]4CNCC[C@@H]4F)c(F)cc3F)n2nc1C(C)(O)C(F)(F)F` (single isomer, unassigned) [Compound 77a], the pIC50 at FLT3 is 8.70; on IRAK4 it was 9.40.
In the case of `COc1cc2ncc(-c3nc(N[C@H]4CNC[C@@H]4F)c(F)cc3F)n2nc1C(C)(O)C(F)(F)F` (single isomer, unassigned) [Compound 80a], the pIC50 at FLT3 was 9.00; against IRAK4, 8.30.
With `COc1cc2ncc(-c3nc(N[C@@H]4CCCNC4)c(F)cc3F)n2nc1C(C)(O)C(F)(F)F` (single isomer, unassigned) [Compound 81a], the pIC50 on FLT3 is 8.30; against IRAK4, 9.22.
Taken in the same sequence, the figures for `COc1cc2ncc(-c3nc(N[C@H]4CNCC[C@@H]4F)c(F)cc3F)n2nc1C1CC2(CCC2)C1` [Compound 10a, 3,5-difluoro-N-((3S,4S)-4-fluoropiperidin-3-yl)-6-(7-methoxy-6-(spiro[3.3]heptan-2-yl)imidazo[1,2-b]pyridazin-3-yl)pyridin-2-amine] were 7.20 and 7.19.
Taken in the same sequence, the figures for `COc1cc2ncc(-c3nc(N[C@H]4CNC[C@@H]4F)c(F)cc3F)n2nc1C1CC2(CCC2)C1` [Compound 12a, 3,5-difluoro-N-((3S,4S)-4-fluoropyrrolidin-3-yl)-6-(7-methoxy-6-(spiro[3.3]heptan-2-yl)imidazo[1,2-b]pyridazin-3-yl)pyridin-2-amine] were 7.89 and 7.15.
For `COc1cc2ncc(-c3nc(N[C@H]4CNCC[C@@H]4F)c(F)cc3F)n2nc1C1CCC1` [Compound 15a, 6-(6-cyclobutyl-7-methoxyimidazo[1,2-b]pyridazin-3-yl)-3,5-difluoro-N-((3S,4S)-4-fluoropiperidin-3-yl)pyridin-2-amine], in that order: more than 9.30 and 9.00.
Consider `COc1cc2ncc(-c3nc(N[C@H]4CNCC[C@@H]4F)c(F)cc3F)n2nc1C12CC(C1)C2` [Compound 67a, 6-(6-(bicyclo[1.1.1]pentan-1-yl)-7-methoxyimidazo[1,2-b]pyridazin-3-yl)-3,5-difluoro-N-((3S,4S)-4-fluoropiperidin-3-yl)pyridin-2-amine], for which the figures for the pIC50 against FLT3 and at IRAK4 were 9.00 and 8.30, respectively.
